According to US3966793A (priority 1964, dated 1976):
Where two headings read alike, the source gives them in different places.

Key:
Acute toxicity (M) LD 50 = conditions: in vivo, mouse
mice [1] = test: Traction test (mice), myorelaxant activity; type: in vivo; conditions: for ED50: Mus musculus, read-out: Traction, 50% effective dose
Source text: This consists in observing when the treated animals are capable of retrieving a rod grasped by the front paws only. Inability to carry this out was interpreted as a sign of myorelaxant activity.

mice [2] = test: Balance test: rotating rod (mice) (Equilibration); type: in vivo; conditions: for ED50: Mus musculus, read-out: Equilibration, 50% effective dose
Source text: 2. Balance test: rotating rod (mice)
This test consists in observing whether the treated animals are capable of maintaining their balance on a horizontal rod kept in rotation.
Numerous neuroleptic compounds or tranquilizers disturb the equilibration reflex.

mice [3] = test: Anti-convulsant activity (anti-pentetrazole) (mice); type: in vivo; conditions: mouse, pentetrazole 125 mg./kg. IP, read-out: Anti-pentetrazole, 50% effective dose
Protocol: 3. Anti-convulsant activity (anti-pentetrazole) (mice)
Pentetrazole, injected intraperitoneally in a dose of 125 mg./kg. produces fatal convulsions in 100% of the animals.
Certain compounds exert a protective action preventing convulsions and permitting survival.

mice [4] = test: Anti-convulsant activity (electric shock) (mice); type: in vivo; conditions: for ED50: Mus musculus, read-out: Electric shock, 50% effective dose
Source text: 4. Anti-convulsant activity (electric shock) (mice)
The test consists in determining the intensity of the electric current required to produce a fatal shock in a batch of test animals.
Certain preventively administered compounds effectively protect a certain percentage of animals subjected to an electric current of an intensity which is fatal to untreated animals.

mice [5] = test: Exploration test (mice); type: in vivo; conditions: for ED50: Mus musculus, read-out: Exploration, 50% effective dose
Protocol: 5. Exploration test (mice)
This extremely simple test consists in placing a mouse at the center of a floor pierced with holes and in noting how many holes the mouse explores in 5 minutes. This test is carried out in a room in which complete silence is observed and which contains no person except the experimenter who is seated and still. It appeals to the curiosity of the animals. The doses of the compounds employed are, however, very small and considerably less than those required to impair movement. This simple test makes it possible to observe whether the compounds assayed produce a more or less pronounced lack of interest in the environment and it gives information which is interesting from the clinical point of view with regard to the treatment of anxiety and restlessness.

rat [6] = test: Spontaneous motor activity in the rat; type: in vivo; conditions: for ED50: Rattus norvegicus, read-out: Spontaneous motor activity, 50% effective dose
Source text: (§1) 6. Spontaneous motor activity in the rat and mouse and provoked motor activity
(§2) The effect of drugs on voluntary movements of animals can be studied statistically by methods, the details of which will not be discussed here. The mouse, which is an extremely lively animal and moves about a great deal, is particularly suitable for this type of experiment.

mouse [7] = test: Spontaneous motor activity in the mouse; type: in vivo; conditions: for ED50: Mus musculus, read-out: Spontaneous motor activity, 50% effective dose
Source text: as §1, §2

rat [8] = test: Benzedrine provoked motor activity (R); type: in vivo; conditions: PO, read-out: Benzedrine provoked motor activity, 50% effective dose
Source text: as §1, §2
(§3) Moreover, this spontaneous mobility can be exacerbated by preventive administration to the animals of certain substances such as benzedrine, mescaline and ritaline.
(§4) The experimental results obtained by these methods give valuable information for clinical purposes with regard to the treatment of ambulatory psychomotor crises.

mouse [9] = test: Benzedrine provoked motor activity (M); type: in vivo; conditions: PO, read-out: Benzedrine provoked motor activity, 50% effective dose
Source text: as §1, §2, §3, §4

mouse [10] = test: Mescaline provoked motor activity (M); type: in vivo; conditions: PO, read-out: Mescaline provoked motor activity, 50% effective dose
Source text: as §1, §2, §3, §4

mouse [11] = test: Ritaline provoked motor activity (M); type: in vivo; conditions: PO, read-out: Ritaline provoked motor activity, 50% effective dose
Source text: as §1, §2, §3, §4

mouse [12] = test: Antistrychnine activity; type: in vivo; conditions: po, read-out: Anti-strychnine, 50% effective dose
Source text: 7. Antistrychnine activity

mouse [13] = test: Morphine excitation (M); type: in vivo; conditions: PO, read-out: Morphine excitation, 50% effective dose
Source text: In the mouse, the action of morphine is different but also manifested by marked central excitation.

cat = test: Morphine crisis (C); type: in vivo; conditions: Felis catus, SC, read-out: Morphine crisis, 50% effective dose
Source text: In the cat, morphine produces a specific state of excitation with hallucinations which can be attenuated or suppressed by certain psycholeptic drugs.

cats = test: Aggressiveness (cat/mouse); type: in vivo; conditions: Felis catus, SC, read-out: Aggressiveness, 50% effective dose
Source text: 9. Aggressiveness (cat/mouse)
In general, 75 to 80% of cats are aggressive when confronted with white mice. Psycholeptics and tranquilizers may make the cat indifferent and sometimes even amiable to the mouse. Similarly, in the case of cats that are furious and aggressive in relation to humans, diminution or suppression of the instinctive fear and establishment of a climate of confidence are observed.

male rat = test: Combativeness (rat); type: in vivo; conditions: for ED50: rat, read-out: Combativeness, 50% effective dose
Source text: It is possible to make a male rat aggressive towards another male rat enclosed in the same cage by passing an electric current of more or less high voltage through the floor of the cage.
This test, like the preceding one, can obviously give information of clinical value for the treatment of aggression diseases.

mouse [14] = test: Potentiation of narcosis (M); type: in vivo; conditions: PO, read-out: Narcotic potentiation, 50% effective dose
Source text: 12. Potentiation of narcosis
Most psycholeptics are hypnotics in large doses, but many of them can, in small doses, without themselves producing any hypnosis, either prolong the time of sleep obtained with a true hypnotic (for example a barbiturate) or appreciably lower the dose of barbiturate required to obtain sleep.

[15] = Reaction (pH) of aqueous solution; type: physicochemical
central nervous system = test: Pharmacodynamic / central nervous system tests taken together; type: in vivo
Source text: A certain number of the compounds described in the present application have been studied with regard to their action on the central nervous system, as psycholeptics, myorrelaxants and tranquilizers. In addition, the acute toxicity has been determined for a number of these compounds.
It has thereby been possible to make quantitative comparisons of the activity of the different compounds for the different tests employed.

rats = test: Double box conditioning test (R); type: in vivo; conditions: rat
Source text: The test used consists in educating rats to avoid an electric current passed through the floor of a cage of two compartments when they change compartments. The animal is first warned by a lamp which lights up in the compartment through which the current is passing while the other is in relative darkness.
This test, which requires more or less daily training at the rate of 50 times for each rat, makes it possible to follow the animals and note their progress. The performances realized at the end of a certain time (3 weeks to 1 month of training) are fairly constant, the percentage of errors made by adequately gifted subjects being less than 10 and very often even zero.
One would imagine that disturbances produced in these performances which call upon the memory of animals would be of great importance for the choice of a new medicament. A deconditioning drug of sufficient intensity could have the result of partly depriving the patient of the idea of danger and would consequently require special surveillance of the sick persons.

[16] = Stability in aqueous solution; type: physicochemical; conditions: compound A obtained

O=C(O)C1N=C(c2ccccc2)c2cc(Cl)ccc2NC1=O.[K+].[K+].[OH-].[OH-] (stereo not drawn) [4306 CB, 7-Chloro-2,3-dihydro-2-oxo-5-phenyl-1H-benzo[f]-1,4-diazepine-3-carboxylic acid, monopotassium salt, monopotassium hydroxide]
LD50 (Acute toxicity (M) LD 50; IP): 250 mg/kg | LD50 (Acute toxicity (M) LD 50; PO): 700 mg/kg | ED50 (mice [1]; po): 1.1 mg/kg | Traction, 50% effective dose (mice [1]; mouse, PO, listed as Ca 2053): 1.25 mg/kg | ED50 (mice [2]; po): 14 mg/kg | Equilibration, 50% effective dose (mice [2]; mouse, PO, listed as Ca 2053): 9.6 mg/kg | ED50 (mice [3]; PO): 1.7 mg/kg | ED50 (mice [4]; po): 4.6 mg/kg | Electric shock, 50% effective dose (mice [4]; mouse, PO, listed as Ca 2053): 3 mg/kg | ED50 (mice [5]; po): 4 mg/kg | Exploration, 50% effective dose (mice [5]; mouse, PO, listed as Ca 2053): 6.25 mg/kg | Spontaneous motor activity, 50% effective dose (rat [6]; PO, listed as Ca 2053): 25 mg/kg | ED50 (rat [6]; po): < 25 mg/kg | ED50 (mouse [7]; po): 5 mg/kg | Spontaneous motor activity, 50% effective dose (mouse [7]; PO, listed as Ca 2053): 10 mg/kg | ED50 (rat [8]): > 100 mg/kg | ED50 (mouse [9]): > 20 mg/kg | ED50 (mouse [10]): 20 mg/kg | ED50 (mouse [11]): 20 mg/kg | ED50 (mouse [12]): 25 mg/kg | ED50 (mouse [13]): 50 mg/kg | ED50 (cat): 25 mg/kg | ED50 (cats): 25 mg/kg | ED50 (male rat; PO): < 25 mg/kg | ED50 (mouse [14]): 2 mg/kg | Reaction / pH of aqueous solution [15]: strongly alkaline in reaction | Activity compared with diazepame (central nervous system; most of the tests): highly active and in most of the tests, it is at least equal and frequently superior to diazepame | Pharmacodynamic comparison of products obtained by the two methods (central nervous system; saponification of benzodiazepine ester or of imine diester): pharmacodynamic studies confirm the identity of the products obtained by the two methods | Solubility in water (Solubility): completely soluble in water

O=C([O-])C1N=C(c2ccccc2)c2cc(Cl)ccc2NC1=O.[K+] (stereo not drawn) [4311 CB, 7-Chloro-2,3-dihydro-2-oxo-5-phenyl-1H-benzo[f]-1,4-diazepine-3-carboxylic acid, potassium salt]
LD50 (Acute toxicity (M) LD 50; IP): 310 mg/kg | LD50 (Acute toxicity (M) LD 50; IV): 220 mg/kg | LD50 (Acute toxicity (M) LD 50; PO): 870 mg/kg | LD50 (Acute toxicity (M) LD 50; SC): 450 mg/kg | ED50 (mice [1]; ip): 1.75 mg/kg | ED50 (mice [1]; po): 1.35 mg/kg | ED50 (mice [2]; ip): 4.5 mg/kg | ED50 (mice [2]; po): 5 mg/kg | ED50 (mice [3]; IP): 2.9 mg/kg | ED50 (mice [3]; PO): 1.65 mg/kg | ED50 (mice [4]; ip): 2.6 mg/kg | ED50 (mice [5]; ip): 5 mg/kg | ED50 (rat [6]; ip): 25 mg/kg | ED50 (rat [6]; po): 50 mg/kg | ED50 (mouse [7]; ip): 25 mg/kg | ED50 (mouse [7]; po): 10 mg/kg | ED50 (rat [8]): 50 mg/kg | ED50 (mouse [10]): 20 mg/kg | ED50 (mouse [12]): 20 mg/kg | ED50 (mouse [13]): 20 mg/kg | ED50 (male rat; IP): 25 mg/kg | ED50 (male rat; PO): 25 mg/kg | ED50 (rats; PO, read-out: Double box conditioning, 50% effective dose): 10 mg/kg | ED50 (mouse [14]): 2 mg/kg | Reaction / pH of aqueous solution [15]: substantially neutral reaction | Decarboxylation on heating an aqueous solution [16]: decarboxylated within a few minutes | Activity compared with 4306 (central nervous system; in vivo): highly active but slightly less so than 4306 | Activity, parenteral compared with oral administration (central nervous system; parenteral vs oral): slightly less when administered parenterally than when administered orally | Solubility in water (Solubility): completely soluble in water

O=C(O)C1N=C(c2ccccc2)c2cc([N+](=O)[O-])ccc2NC1=O.[K+].[K+].[OH-].[OH-] (stereo not drawn) [4335 CB, 7-Nitro-2,3-dihydro-2-oxo-5-phenyl-1H-benzo[f]-1,4-diazepine-3-carboxylic acid, monopotassium salt, monopotassium hydroxide]
LD50 (Acute toxicity (M) LD 50; PO): 560 mg/kg | ED50 (mice [1]; po): 1.25 mg/kg | ED50 (mice [2]; po): 4.3 mg/kg | ED50 (mice [3]; PO): 0.44 mg/kg | ED50 (mice [4]; po): 3.2 mg/kg | ED50 (mice [5]; po): 1.8 mg/kg | ED50 (rat [6]; po): 25 mg/kg | ED50 (mouse [7]; po): 5 mg/kg | ED50 (rat [8]): 100 mg/kg | ED50 (mouse [10]): 20 mg/kg | ED50 (mouse [11]): > 20 mg/kg | ED50 (mouse [12]): > 20 mg/kg | ED50 (mouse [13]): 50 mg/kg | ED50 (cat): 25 mg/kg | ED50 (cats): 25 mg/kg | ED50 (male rat; PO): 10 mg/kg | Effect in diminishing aggressiveness (male rat; test for combativeness): marked effect in diminishing aggressiveness | Reaction / pH of aqueous solution [15]: strongly alkaline in reaction | Activity in different tests, especially as myorelaxants and anticonvulsants (central nervous system; different tests of Table VI): extremely active in different tests | Effect on the faculties of displacement (central nervous system; in vivo): less effect on the faculties of displacement | Solubility in water (Solubility): dissolves completely in water

O=C1CN=C(c2ccccc2)c2cc(Cl)ccc2N1 [Nor-diazepame, 7-Chloro-5-phenyl-2-oxo-2,3-dihydro-1H-benzo[f]-1,4-diazepine, reference compound]
ED50 (mice [1]; po): 3.5 mg/kg | ED50 (mice [2]; po): 8.6 mg/kg | ED50 (mice [3]; PO): 2.9 mg/kg | ED50 (mice [4]; po): 9 mg/kg | ED50 (mice [5]; po): 7.8 mg/kg | ED50 (rat [6]; po): 50 mg/kg | ED50 (mouse [7]; po): 50 mg/kg | ED50 (rat [8]): 100 mg/kg | ED50 (mouse [9]): > 20 mg/kg | ED50 (male rat; PO): 100 mg/kg | Double box conditioning, effect in words (rats): Without effect
